In US9416173B2, “Peptide and conjugate vaccines for fungal infections” (priority 2011, dated 2016):

What was measured:
[1] = tested on: synthetic peptides; test: ELISA antibody responses to peptide-pulsed DC vaccines; type: in vivo, BALB/c mice; settings: general fungal peptides, peptide-pulsed DC + CFA
Protocol: The murine dendritic cells (DCs) were pulsed in vitro with peptide candidate vaccine antigens as previously described (53). Briefly, DCs in culture were pulsed with the peptide antigen (1 μM) on day 6. On day 7, PGE2 (10^-7M) was added along with LPS (2 μg/ml, Sigma-Aldrich) for 24 h. On day 9, antigen-pulsed DCs were washed extensively and 5×10^5 in 200 μl DPBS were given intraperitoneally (i.p.) as the priming dose to mice. The mice were boosted i.p. at day 14 with fresh antigen-pulsed DCs and boosted a second time at day 28 with antigen (10 μg) emulsified in complete Freund adjuvant (CFA) given subcutaneously (s.c.).
Sera were ELISA analyzed for antibody titers. For DC-based immunization, control groups consisted of mice given DCs alone at the time of priming and first booster followed by CFA alone at the time of the second booster, or DPBS alone for all three injections. For Fba peptides administered with alum or MPL, control groups were mice given adjuvant alone or DPBS buffer. […] Synthetic Fba-MAP (GenScript) was dissolved at 5 μg/ml in PBS (pH 7.4) and used to coat 96-well ELISA plates for testing duplicate serial 2-fold dilutions of samples of each immune serum and control sera. Color development for each well was achieved by use of secondary antibody (goat anti-mouse polyvalent Ig-HRP) and substrate (O-phenylenediamine and H2O2) and OD determined at 492 nm.
FIGS. 1A-1C show the antibody responses in BALB/c mice against peptide-pulsed DC vaccines. Sera from mice immunized with the six synthetic peptide carriers presented on dendritic cells (DCs) for the priming and first booster immunizations and emulsified in complete Freund adjuvant (CFA) for the second booster were tested by ELISA for antibody responses against the peptides. Control groups consisted of mice given the same regimen for priming and boosters except that the peptides were omitted (DCs+CFA) or DPBS only was used at each injection time. […] The bars of each panel indicate means of CFUs per kidney pair for each group. The lowest limit of detection for the CFU assay is 50 CFU per kidney pair.
Sera were ELISA analyzed for antibody titers. Control groups consisted of mice given DCs alone at the time of priming and first booster followed by DPBS at the time of the second booster, DPBS for the priming and first booster and CFA alone at the time of the second booster, DPBS alone for all three injections, or DCs alone for priming and first booster followed by CFA alone at the time of the second booster. Briefly, synthetic peptides were dissolved at 10 μg/ml in PBS (pH 7.4). […] Color development for each well was achieved by secondary antibody (goat anti-mouse polyvalent immunoglobulin-HRP, Sigma) and substrate (O-phenylenediamine and H2O2) and Optical Density (OD) determined at 492 nm.

[2] = tested on: C. albicans strain 3153A; test: Fungal challenge and assessment of protection (disseminated candidiasis), peptide vaccines; type: in vivo, BALB/c mice; settings: for protection against disseminated candidiasis (survival) / viable fungal units (CFUs) in kidneys: peptide-pulsed DC vaccine; for protection against disseminated candidiasis (survival): vs DPBS or DCs+CFA controls; for viable fungal units (CFUs) in kidneys: vs controls, detection limit 50 CFU per kidney pair; for survival rate: general peptides, experiment terminated 80 days post challenge
Protocol: C. albicans 3153A and SC5314, C. krusei (ATCC 6258), C. glabrata (ATCC 2001) and Saccharomyces cerevisiae (ATCC 9463) were obtained from the American Type Culture Collection (ATCC; Manassas, Va.) and were grown as stationary-phase yeast cells in glucose-yeast extract-peptone broth at 37° C., washed and suspended to the appropriate cell concentration (5×10^6/ml) in Dulbecco's PBS (DPBS; Sigma-Aldrich, St. Louis, Mo.), and used to infect mice intravenously (i.v.) as previously described (25, 29). C. albicans strain 3153A was also used for serum antibody absorption, immunofluorescence staining and flow cytometric analysis. Unless otherwise indicated, C. albicans strain 3153A was used to challenge the mice in the examples below.
(§1) Two weeks after the second boost, immune and control mice were infected intravenously (i.v.) with a lethal dose of live C. albicans yeast cells (5×10^5 in 0.1 ml of DPBS) prepared as described above and as before (53). Passively immunized mice (below) also received the same challenge dose. Protection was evaluated by monitoring animal survival for 80-100 days. The mice were monitored 2-3 times daily for the development of a moribund state, defined as being listless, disinterested in food or water, and nonreactive to finger probing. At the time that a mouse was deemed moribund, it was sacrificed and their kidneys (for some experiments, brains) were homogenized in DPBS and plated onto a nutrient agar to determine colony forming units (CFUs). After 80-100 days, the experiments were terminated and all the survivors at that time were sacrificed and their kidneys were assessed for CFU as before. The lowest limit of detection for the CFU assay was 50 CFU per kidney pair.
Two weeks after the second boost, immune and control mice were infected i.v. with a lethal dose of live C. albicans yeast cells (5×10^5 in 0.1 ml of DPBS). Passively immunized mice also received the same challenge dose. Protection was evaluated by monitoring animal survival for up to 120 days and by quantifying the number of CFU (mean±SE) per kidney pairs. Median survival times (MST) were statistically evaluated by Kaplan-Meier (GraphPad Prism, version 4). In all analyses, there were five mice per group (n=5), and a two-tailed t test was used.

[3] = tested on: anti-Fba antibodies in immune sera; test: ELISA inhibition assay with modified Fba peptides as inhibitors; type: binding, mice; settings: compared with original Fba inhibition curve
Protocol: (§2) The specificity of MAb E2-9 for Fba peptide was determined by an inhibition ELISA as described previously (52, 53). Briefly, Fba-MAP was dissolved in DPBS (5 μg/ml), and the solution was used to coat 96-well ELISA plates (100 μl, overnight at 4° C.). The wells were washed five times with PBST (PBS containing Tween 20, 0.05% [vol/vol] and blocked with 1% bovine serum albumin-PBST. MAb E2-9 produced as described above, was serially diluted up to 10,000 for ELISA measurements. Unless otherwise stated, the serum was diluted 1:100 dilution in DPBS to determine the content of antibody by ELISA. MAb E2-9 was mixed with Fba peptide (inhibitor) (dissolved in PBST at a concentration between 0.1 μM and 1 mM), and the resulting solution of each concentration was added to the Fba-MAP coated microtiter wells (solid phase) in triplicate and incubated at 21 to 23° C. for 2 h. Unless otherwise stated, the concentration of test antigens used to coat the wells was about 5-10 μg/ml. The wells were washed three times with PBST, and goat anti-mouse heavy chain specific for IgM was HRP-conjugated (diluted 1:10,000 in PBST) (Sigma) and 100 μl was added to the corresponding wells and incubated for 1 h at 21 to 23° C. The wells were washed five times with PBST, followed by addition of 100 μl of substrate solution (25 ml of 0.05 M phosphate-citrate buffer [pH 5.0], 200 μl of an aqueous solution of O-phenylenediamine 50 mg/ml [Sigma], and 10 μl of 30% H2O2). Color was allowed to develop for 10 min, stopped by addition of […] of 2 M H2SO4, and read at 492 nm (microtiter plate reader, model 450; Bio-Rad, Richmond, Calif.). The percent inhibition was calculated relative to wells containing antibody without inhibitor.
The specificity of anti-Fba antibodies in immune sera was tested for the modified Fba peptides as determined by ELISA inhibition assay. Peptide 1, original Fba, which was used as an inhibitor, was included as a positive control. The inhibition curve of FIG. 17 serves to compare the curves with the other modified peptides 2-11. FIGS. 18A, 18B, 18C, and 18D show the results of ELISA inhibition assays for peptide 2, peptide 3, peptide 4 and peptide 5, respectively. Each methylated peptide was used as an inhibitor in the designated assay. […] The reaction is dose-dependent for each group, indicating anti-Fba antibodies in immune sera were specific for the modified peptides. […] The binding of peptide 11, which has two extra cysteines may indicate that the binding site of Fba with antibody is located at the carboxyl part of the peptide.

[4] = tested on: C. albicans; test: Immunofluorescence and flow cytometric analysis of binding to fungal cell surface; type: cell-based; settings: live fungal cells reacted with immune serum of peptide-immunized mice
Protocol: Distribution of the Fba peptide epitope on yeast cells was determined by indirect immunofluorescence. […] The yeast cells were suspended in the antibody preparation and incubated while shaking by rotation at room temperature (RT, 22-24° C.) for 1-2 h. After incubation, the yeast cells were washed with DPBS three times, suspended in 200 μl of fluorescein-labeled goat anti-mouse IgM (u-chain specific; Sigma) (stock solution, 1 mg/ml; working solution, 20 μg/ml of DPBS) and incubated at RT as described above for 0.5 h. The yeast cells were washed with DPBS three times and suspended in 200 μl of DPBS. The cells were observed by confocal microscopy (LSM 510, Zeiss). The distribution of the Fba peptide epitope on the yeast cell surface was compared to that obtained with yeast cells fluorescently stained for detection of the MAb B6.1 epitope. […] For flow cytometric analysis, following the last incubation, cells were washed as described above and suspended in the 500 μl DPBS buffer. Flow cytometry was performed using a BD Biosciences FACSVantage SE equipped with an argon laser excitation at 488 nm. 10,000 cells in each sample were analyzed (CellQuest Pro software).
Distribution of the β-(Man)3 and Fba peptide epitopes on yeast cells was determined by use of immune serum for flow cytometric analysis and indirect immunofluorescence. One hundred microliters of immune serum (1:100 dilution in 1% BSA/DPBS) was added to a pellet of C. albicans yeast cells (5×10^6) that was prewashed with DPBS buffer three times. The yeast cells were suspended in the immune serum [from β-(Man)3-Fba-TT immunized mice] preparation and incubated while shaking by rotation at room temperature (RT, 22-24° C.) for 1-2 h. After incubation, the yeast cells were washed with DPBS three times, suspended in 200 μl of fluorescein-labeled goat anti-mouse IgM (μ-chain specific; Sigma) (stock solution, 1 mg/ml; working solution, 20 μg/ml of DPBS) and incubated at RT described above for 0.5 h. The yeast cells were washed with DPBS three times and suspended in 500 μl of DPBS. Flow cytometry was performed using a BD Biosciences FACSVantage SE equipped with an argon laser excitation at 488 nm. 10,000 cells in each sample were analyzed (CellQuest Pro software).
For immunofluorescence assays, the fungal cells were immunostained and washed as described above and suspended in the 200 μl DPBS buffer. The cells were observed by confocal microscopy (LSM 510, Zeiss). The distribution of the β-(Man)3 and Fba peptide epitopes on the yeast cell surface was compared to that obtained with yeast cells fluorescently stained for detection of the MAb B6.1 epitope.

[5] = tested on: Fba peptide; parameters: species or system BALB/c mice; settings: mouse, in vivo
[6] = tested on: Fba peptide; test: ELISA antibody responses against the Fba peptide in C57BL/6 mice; type: in vivo; settings: DC-based immunization; 14 days after second booster
Protocol: By the same DC-based immunization approach used for the BALB/c mice as described above, C57BL/6 mice was tested with the Fba peptide was given alone or as a glycoconjugate compared to the control groups of mice injected with DPBS buffer, or DCs+CFA.
Fourteen days after the second booster, immune sera were tested by ELISA for antibody responses against the Fba peptide.

[7] = tested on: Fba peptide; test: Rabbit antisera against the Fba peptide (titers); type: in vivo; settings: Fba conjugated to KLH; each of two rabbits; commercial source (Genscript); data not shown
Text: To obtain enough antisera for passive transfer experiments, and to determine whether the Fba peptide is immunologically restricted in other animal species, we obtained rabbit antisera against the peptide from a commercial source (Genscript). Fba was conjugated to keyhole limpet hemocyanin (KLH) prior to the rabbit immunizations.

[8] = tested on: C. albicans strain SC5314; test: Fungal challenge and assessment of protection, strain SC5314; type: in vivo, BALB/c mice; settings: Fba peptide by dendritic cell approach
Protocol: as §1
To test if vaccination with the Fba peptide pulsed DCs protects mice challenged with a different C. albicans strain, we challenged immunized mice with C. albicans strain SC5314 (ATCC), which is the most commonly used clinical isolate of C. albicans for research purposes. As a positive control, a second group of mice immunized at the same time were challenged with C. albicans strain 3153A.

[9] = tested on: MAb E2-9; test: Inhibition ELISA (MAb E2-9 on Fba-MAP coated wells, Fba peptide as inhibitor); type: binding; settings: soluble Fba peptide inhibiting MAb E2-9 reactivity with solid phase Fba-MAP
Protocol: as §2, with “The wells were washed three times with PBST, and goat anti-mouse heavy chain specific for IgM was HRP-conjugated (diluted 1:10,000 in PBST) (Sigma) and 100 μl was added to the corresponding wells and incubated for 1 h at 21 to 23° C. The wells were washed five times with PBST, followed by addition of 100 μl of substrate solution (25 ml of 0.05 M phosphate-citrate buffer [pH 5.0], 200 μl of an aqueous solution of O-phenylenediamine 50 mg/ml [Sigma], and 10 μl of 30% H2O2).” left out

FAIPAINVTSSSTV [Fba2]
antibody responses (ELISA, plates coated with the peptide) [1]: good and specific antibody responses | protection (survival) vs DC+CFA control ([2]; general peptides experiment, DC immunization): failed to induce good protection

QGETEEALIQKRSY [Hwp1]
protection against disseminated candidiasis (survival) [2]: a high degree of protection | viable fungal units (CFUs) in kidneys [2]: low or even non-detectable

YGKDVKDLFDYAQE (methylated at position 2) [Pep3]
effect on peptide-antibody binding (ELISA inhibition, peptide as inhibitor) [3]: little effect on peptide-antibody binding

NRSPSTGEQKSSGI [Gap1]
protection against disseminated candidiasis (survival) [2]: neither of two other peptides Gap1, or Eno1 induced protection | viable fungal units (CFUs) in kidneys [2]: slightly less fungal burden

PRIGGQRELKKITE [Met6]
protection against disseminated candidiasis (survival) [2]: a high degree of protection | viable fungal units (CFUs) in kidneys [2]: low or even non-detectable

YGKDVKDLFDYAQE (methylated at positions 1 and 8) [Pep10]
effect on peptide-antibody binding (ELISA inhibition, peptide as inhibitor) [3]: bound well to antibody

SSSTVVAAL [Fba4]
antibody responses (ELISA, plates coated with the peptide) [1]: able to induce antibody responses | binding of antibody in the immune serum to the peptides expressed on C. albicans cell surface (flow cytometric analysis) [4]: expressed on the fungal surface and are accessible to antibodies in immune sera | survival rate ([2]; DC immunization): 60%

YGKDCVKCDLFDYAQE (cysteine added at positions 5 and 8) (cysteines added at positions 5 and 8) [Pep 11]
effect on peptide-antibody binding (ELISA inhibition, peptide as inhibitor) [3]: bound well to antibody

VPLDGKTITNNQRI [Pgk1]
protection against disseminated candidiasis (survival) [2]: some protection | viable fungal units (CFUs) in kidneys [2]: low or non-detectable CFUs

YGKDVKDLFDYAQE [Fba]
anti-Fba IgM and IgG antibodies in sera [5]: very low levels of anti-Fba IgM and IgG antibodies | antibody responses against the Fba peptide (ELISA, Fba-MAP coated plates) [6]: strong antibody responses | Titers of anti-Fba peptide immune sera [7]: 512,000 | binding of antibody in the immune serum to the peptides expressed on C. albicans cell surface (flow cytometric analysis) [4]: expressed on the fungal surface and are accessible to antibodies in immune sera | survival time ([8]; vs DCs+CFA or DPBS (P<0.01)): significant prolonged survival time | CFUs in kidneys ([8]; vs controls (P<0.01)): greatly reduced or non-detectable CFUs | concentration of inhibitor (Fba peptide) required to achieve 50% inhibitory concentration [9]: about 10 μg/ml | protection against disseminated candidiasis (survival) [2]: a high degree of protection | viable fungal units (CFUs) in kidneys [2]: low or even non-detectable

YGKDVKDLFDYAQE (methylated at position 3) [Pep4]
effect on peptide-antibody binding (ELISA inhibition, peptide as inhibitor) [3]: little effect on peptide-antibody binding

YGKDVKDLFDYAQE (methylated at position 1) [Pep2]
effect on peptide-antibody binding (ELISA inhibition, peptide as inhibitor) [3]: little effect on peptide-antibody binding

FAIPAINVTSSSTVVAALE [Fba3]
antibody responses (ELISA, plates coated with the peptide) [1]: able to induce antibody responses | binding of antibody in the immune serum to the peptides expressed on C. albicans cell surface (flow cytometric analysis) [4]: expressed on the fungal surface and are accessible to antibodies in immune sera | survival rate ([2]; DC immunization): 80%

YDQVLDLSLLFNAIP [Met6-2]
antibody responses (ELISA, plates coated with the peptide) [1]: able to induce antibody responses | binding of antibody in the immune serum to the peptides expressed on C. albicans cell surface (flow cytometric analysis) [4]: expressed on the fungal surface and are accessible to antibodies in immune sera | survival rate ([2]; DC immunization): 80%

DSRGNPTVEVDFTT [Eno1]
protection against disseminated candidiasis (survival) [2]: neither of two other peptides Gap1, or Eno1 induced protection | viable fungal units (CFUs) in kidneys [2]: slightly less fungal burden

YGKDVKDLFDYAQE (methylated at position 5) [Pep5]
effect on peptide-antibody binding (ELISA inhibition, peptide as inhibitor) [3]: little effect on peptide-antibody binding
